# Experimental data taken from US20250026759A1 (Merck Sharp & Dohme LLC, priority 2023, published 2025).
# Tested on: PBMCs infected with VSV-G pseudotyped HIV virus (VSV-G/pNLG1-P2A-ΔEnv)
# Assay: cells
# Assay type: cell-based, human
# Conditions: Homo sapiens, PBMC, read-out: TACK EC50
row,Structure (SMILES),EC50 [nM]
1,"O=C1Nc2cc(Cn3cn[nH]c3=O)c(F)cc2[C@@](C#CC2CC2)(C(F)(F)F)N1 [Example 34, (S)-4-(cyclopropylethynyl)-6-fluoro-7-((5-oxo-1,5-dihydro-4H-1,2,4-triazol-4-yl)methyl)-4-(trifluoromethyl)-3,4-dihydroquinazolin-2(1H)-one]",44.6
2,"CC(F)(F)[C@@]1(C#CC2CC2)NC(=O)Nc2cc(Cn3ccc(N)n3)c(F)cc21 [Example 43, (S)-7-((3-amino-1H-pyrazol-1-yl)methyl)-4-(cyclopropylethynyl)-4-(1,1-difluoroethyl)-6-fluoro-3,4-dihydroquinazolin-2(1H)-one]",8.5
3,"O=C1Nc2cc(Cn3cc4cccnc4n3)c(F)cc2[C@@](C#CC2CC2)(C(F)(F)F)N1 [Example 28, (S)-7-((2H-pyrazolo[3,4-b]pyridin-2-yl)methyl)-4-(cyclopropylethynyl)-6-fluoro-4-(trifluoromethyl)-3,4-dihydroquinazolin-2(1H)-one]",104
4,"CC(F)(F)[C@@]1(C#CC2CC2)NC(=O)Nc2cc(CNC(=O)c3[nH]cnc3Cl)c(F)cc21 [Example 77, (S)-4-chloro-N-((4-(cyclopropylethynyl)-4-(1,1-difluoroethyl)-6-fluoro-2-oxo-1,2,3,4-tetrahydroquinazolin-7-yl)methyl)-1H-imidazole-5-carboxamide]",8.7
5,"CN1CC(=O)N(Cc2cc3c(cc2F)[C@@](C#CC2CC2)(C(F)(F)F)NC(=O)N3)C1=O [Example 9, (S)-3-((4-(cyclopropylethynyl)-6-fluoro-2-oxo-4-(trifluoromethyl)-1,2,3,4-tetrahydroquinazolin-7-yl)methyl)-1-methylimidazolidine-2,4-dione]",74.6
6,"O=C1Nc2cc(Cn3c(=O)[nH]c4ncccc43)c(F)cc2[C@@](C#CC2CC2)(C(F)(F)F)N1 (single isomer, unassigned) [Example 8]",38.7
7,"CN1C(=O)NC(=O)C1Cc1cc2c(cc1F)[C@@](C#CC1CC1)(C(C)(F)F)NC(=O)N2 (single isomer, unassigned) [Example 124, (S or R)-5-(((S)-4-(cyclopropylethynyl)-4-(1,1-difluoroethyl)-6-fluoro-2-oxo-1,2,3,4-tetrahydroquinazolin-7-yl)methyl)-1-methylimidazolidine-2,4-dione]",90.4
8,"CC(F)(F)[C@@]1(C#CC2CC2)NC(=O)Nc2cc(Cn3ccc(CO)n3)c(F)cc21 [Example 2, (S)-4-(cyclopropylethynyl)-4-(1,1-difluoroethyl)-6-fluoro-7-((3-(hydroxymethyl)-1H-pyrazol-1-yl)methyl)-3,4-dihydroquinazolin-2(1H)-one]",14.5
9,"Cc1cnn(Cc2cc3c(cc2F)[C@@](C#CC2CC2)(C(C)(F)F)NC(=O)N3)c1 [Example 11, (S)-4-(cyclopropylethynyl)-4-(1,1-difluoroethyl)-6-fluoro-7-((4-methyl-1H-pyrazol-1-yl)methyl)-3,4-dihydroquinazolin-2(1H)-one]",46.6
10,"CC(O)c1ccn(Cc2cc3c(cc2F)[C@@](C#CC2CC2)(C(C)(F)F)NC(=O)N3)n1 (single isomer, unassigned) [Example 72, (S)-4-(cyclopropylethynyl)-4-(1,1-difluoroethyl)-6-fluoro-7-((3-((S or R)-1-hydroxyethyl)-1H-pyrazol-1-yl)methyl)-3,4-dihydroquinazolin-2(1H)-one]",46.2
11,"CC(F)(F)[C@@]1(C#CC2CC2)NC(=O)Nc2cc(Cn3ccc(S(N)(=O)=O)n3)c(F)cc21 [Example 120, (S)-1-((4-(cyclopropylethynyl)-4-(1,1-difluoroethyl)-6-fluoro-2-oxo-1,2,3,4-tetrahydroquinazolin-7-yl)methyl)-1H-pyrazole-3-sulfonamide]",61.7
12,"COc1ccc(-c2ccn(Cc3cc4c(cc3F)[C@@](C#CC3CC3)(C(C)(F)F)NC(=O)N4)n2)cc1 [Example 97, (S)-4-(cyclopropylethynyl)-4-(1,1-difluoroethyl)-6-fluoro-7-((3-(4-methoxyphenyl)-1H-pyrazol-1-yl)methyl)-3,4-dihydroquinazolin-2(1H)-one]",45.3
13,"O=C1Nc2cc(CNC(=O)c3ncco3)c(F)cc2[C@@](C#CC2CC2)(C(F)(F)F)N1 [Example 83, (S)-N-((4-(cyclopropylethynyl)-6-fluoro-2-oxo-4-(trifluoromethyl)-1,2,3,4-tetrahydroquinazolin-7-yl)methyl)oxazole-2-carboxamide]",158
14,"CC(F)(F)[C@@]1(C#CC2CC2)NC(=O)Nc2cc(Cn3nc[nH]c3=O)c(F)cc21 [Example 109, (S)-4-(cyclopropylethynyl)-4-(1,1-difluoroethyl)-6-fluoro-7-((5-oxo-4,5-dihydro-1H-1,2,4-triazol-1-yl)methyl)-3,4-dihydroquinazolin-2(1H)-one]",20.9
15,"O=C1Nc2cc(Cn3cnc(CO)n3)c(F)cc2[C@@](C#CC2CC2)(C(F)(F)F)N1 [Example 31, (S)-4-(cyclopropylethynyl)-6-fluoro-7-((3-(hydroxymethyl)-1H-1,2,4-triazol-1-yl)methyl)-4-(trifluoromethyl)-3,4-dihydroquinazolin-2(1H)-one]",52.8
16,"Cc1cn(Cc2cc3c(cc2F)[C@@](C#CC2CC2)(C(C)(F)F)NC(=O)N3)nc1CO [Example 68, (S)-4-(cyclopropylethynyl)-4-(1,1-difluoroethyl)-6-fluoro-7-((3-(hydroxymethyl)-4-methyl-1H-pyrazol-1-yl)methyl)-3,4-dihydroquinazolin-2(1H)-one]",31

row,Structure (SMILES),EC50 [nM]
1,"CN(C)c1ccn(Cc2cc3c(cc2F)[C@@](C#CC2CC2)(C(C)(F)F)NC(=O)N3)n1 [Example 76, (S)-4-(cyclopropylethynyl)-4-(1,1-difluoroethyl)-7-((3-(dimethylamino)-1H-pyrazol-1-yl)methyl)-6-fluoro-3,4-dihydroquinazolin-2(1H)-one]",60.4
2,"O=C1Nc2cc(CNC(=O)c3nccs3)c(F)cc2[C@@](C#CC2CC2)(C(F)(F)F)N1 [Example 89, (S)-N-((4-(cyclopropylethynyl)-6-fluoro-2-oxo-4-(trifluoromethyl)-1,2,3,4-tetrahydroquinazolin-7-yl)methyl)thiazole-2-carboxamide]",95
3,"COCc1ccn(Cc2cc3c(cc2F)[C@@](C#CC2CC2)(C(F)(F)F)NC(=O)N3)n1 [Example 30, (S)-4-(cyclopropylethynyl)-6-fluoro-7-((3-(methoxymethyl)-1H-pyrazol-1-yl)methyl)-4-(trifluoromethyl)-3,4-dihydroquinazolin-2(1H)-one]",36.5
4,"CC(F)(F)[C@@]1(C#CC2CC2)NC(=O)Nc2cc(Cn3cnc(CO)c3)c(F)cc21 (single isomer, unassigned) [Example 51]",107
5,"CC(F)(F)[C@@]1(C#CC2CC2)NC(=O)Nc2cc(Cn3cc(-c4ccncc4)cn3)c(F)cc21 [Example 10, (S)-4-(cyclopropylethynyl)-4-(1,1-difluoroethyl)-6-fluoro-7-((4-(pyridin-4-yl)-1H-pyrazol-1-yl)methyl)-3,4-dihydroquinazolin-2(1H)-one]",37.2
6,"CC(F)(F)[C@@]1(C#CC2CC2)NC(=O)Nc2cc(Cn3cnc(N)n3)c(F)cc21 [Example 106, (S)-7-((3-amino-1H-1,2,4-triazol-1-yl)methyl)-4-(cyclopropylethynyl)-4-(1,1-difluoroethyl)-6-fluoro-3,4-dihydroquinazolin-2(1H)-one]",16.8
7,"CC(F)(F)[C@@]1(C#CC2CC2)NC(=O)Nc2cc(Cn3ccc(CCO)n3)c(F)cc21 [Example 47, (S)-4-(cyclopropylethynyl)-4-(1,1-difluoroethyl)-6-fluoro-7-((3-(2-hydroxyethyl)-1H-pyrazol-1-yl)methyl)-3,4-dihydroquinazolin-2(1H)-one]",37.7
8,"NC(=O)c1ncnn1Cc1cc2c(cc1F)[C@@](C#CC1CC1)(C(F)(F)F)NC(=O)N2 (single isomer, unassigned) [Example 116]",31.8
9,"O=C1Nc2cc(Cn3cc4cnccc4n3)c(F)cc2[C@@](C#CC2CC2)(C(F)(F)F)N1 [Example 21, (S)-7-((2H-pyrazolo[4,3-c]pyridin-2-yl)methyl)-4-(cyclopropylethynyl)-6-fluoro-4-(trifluoromethyl)-3,4-dihydroquinazolin-2(1H)-one]",13.4
10,"NC(=O)c1nccn1Cc1cc2c(cc1F)[C@@](C#CC1CC1)(C(F)(F)F)NC(=O)N2 [Example 100, (S)-1-((4-(cyclopropylethynyl)-6-fluoro-2-oxo-4-(trifluoromethyl)-1,2,3,4-tetrahydroquinazolin-7-yl)methyl)-1H-imidazole-2-carboxamide]",13.6
11,"CC(F)(F)[C@@]1(C#CC2CC2)NC(=O)Nc2cc(Cn3cc(F)c(C(N)=O)n3)c(F)cc21 (single isomer, unassigned) [Example 104]",14.6
12,"O=C1Nc2cc(Cn3cc4c(n3)CCOC4)c(F)cc2[C@@](C#CC2CC2)(C(F)(F)F)N1 (single isomer, unassigned) [Example 23]",21.2
13,"CN(C)Cc1ccn(Cc2cc3c(cc2F)[C@@](C#CC2CC2)(C(C)(F)F)NC(=O)N3)n1 [Example 126, (S)-4-(cyclopropylethynyl)-4-(1,1-difluoroethyl)-7-((3-((dimethylamino)methyl)-1H-pyrazol-1-yl)methyl)-6-fluoro-3,4-dihydroquinazolin-2(1H)-one]",101
14,"CC(F)(F)[C@@]1(C#CC2CC2)NC(=O)Nc2cc(Cn3cncn3)c(F)cc21 [Example 20, (S)-7-((1H-1,2,4-triazol-1-yl)methyl)-4-(cyclopropylethynyl)-4-(1,1-difluoroethyl)-6-fluoro-3,4-dihydroquinazolin-2(1H)-one]",43.7
15,"CC(F)(F)[C@@]1(C#CC2CC2)NC(=O)Nc2cc(Cn3ncc(F)c3C(N)=O)c(F)cc21 (single isomer, unassigned) [Example 103]",30.2

# Same assay, conditions: read-out: TACK EC50
row,Structure (SMILES),EC50 [nM]
1,"COC(C)c1ccn(Cc2cc3c(cc2F)[C@@](C#CC2CC2)(C(C)(F)F)NC(=O)N3)n1 (single isomer, unassigned) [Example 59, (S)-4-(cyclopropylethynyl)-4-(1,1-difluoroethyl)-6-fluoro-7-((3-((S or R)-1-methoxyethyl)-1H-pyrazol-1-yl)methyl)-3,4-dihydroquinazolin-2(1H)-one]",55.6
